From PubChem BioAssay AID248 (DTP/NCI, 2004)
Where “and” joins values, the source holds several entries; their conditions need not be identical. Identical values can stand only once. Toxic doses and inconclusive results are not listed. Cut-off read from the data, not from the text of the source: active = T/C of 150% or more; inactive = T/C below 125%.

Test system: L1210 leukemia ip in BDF1 mice, survival T/C
Test: NCI In Vivo Anticancer Drug Screen. Data for tumor model L1210 Leukemia (intraperitoneal) in B6D2F1 (BDF1) mice
Conditions: endpoint: mean survival time, higher = longer survival
In short: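 Mice bearing the transplanted tumor received compound or vehicle. Survival of the treated group was divided by that of the vehicle-treated control group to give the ratio.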

[1] = dose: 50.0 mg/kg/injection, schedule: Q01DX001 (ip), vehicle: saline
[2] = dose: 100.0 mg/kg/injection, schedule: Q01DX009 (ip), vehicle: saline with Tween-80
[3] = dose: 200.0 mg/kg/injection, schedule: Q01DX009 (ip), vehicle: saline with Tween-80
[4] = dose: 100.0 mg/kg/injection, schedule: Q01DX001 (ip), vehicle: saline
[5] = dose: 200.0 mg/kg/injection, schedule: Q01DX001 (ip), vehicle: saline
[6] = dose: 400.0 mg/kg/injection, schedule: Q01DX001 (ip), vehicle: saline
[7] = dose: 100.0 mg/kg/injection, schedule: Q04DX003 (ip), vehicle: saline
[8] = dose: 200.0 mg/kg/injection, schedule: Q01DX009 (ip), vehicle: saline
[9] = dose: 200.0 mg/kg/injection, schedule: Q04DX003 (ip), vehicle: saline
[10] = dose: 400.0 mg/kg/injection, schedule: Q01DX009 (ip), vehicle: saline
[11] = dose: 400.0 mg/kg/injection, schedule: Q04DX003 (ip), vehicle: saline
[12] = dose: 100.0 mg/kg/injection, schedule: Q01DX001 (ip), vehicle: saline with Tween-80
[13] = dose: 100.0 mg/kg/injection, schedule: Q04DX003 (ip), vehicle: saline with Tween-80
[14] = dose: 200.0 mg/kg/injection, schedule: Q01DX001 (ip), vehicle: saline with Tween-80
[15] = dose: 200.0 mg/kg/injection, schedule: Q04DX003 (ip), vehicle: saline with Tween-80
[16] = dose: 400.0 mg/kg/injection, schedule: Q01DX001 (ip), vehicle: saline with Tween-80
[17] = dose: 400.0 mg/kg/injection, schedule: Q04DX003 (ip), vehicle: saline with Tween-80

Measured: T/C

CCOC(=O)C1=C2c3ccc4ccccc4c3CCC2(C)C(=O)C1 (configuration not stated)
inactive: dose: 75.0 mg/kg/injection, schedule: Q01DX001 (sc), vehicle: steriod suspending solution 98 % of control | dose: 75.0 mg/kg/injection, schedule: Q01DX009 (sc), vehicle: steriod suspending solution 106 % of control | dose: 150.0 mg/kg/injection, schedule: Q01DX001 (sc), vehicle: steriod suspending solution 103 % of control | dose: 150.0 mg/kg/injection, schedule: Q01DX009 (sc), vehicle: steriod suspending solution 101 % of control | dose: 300.0 mg/kg/injection, schedule: Q01DX001 (sc), vehicle: steriod suspending solution 93 % of control | dose: 300.0 mg/kg/injection, schedule: Q01DX009 (sc), vehicle: steriod suspending solution 105 % of control

CCOc1ccc(NC(=O)C(C(C)N2CCCCC2)N2CCCCC2)cc1 (configuration not stated)
inactive: dose: 12.5 mg/kg/injection, schedule: Q01DX001 (ip), vehicle: saline 94 % of control | dose: 12.5 mg/kg/injection, schedule: Q01DX009 (ip), vehicle: saline 95 % of control | dose: 12.5 mg/kg/injection, schedule: Q04DX003 (ip), vehicle: saline 97 % of control | dose: 25.0 mg/kg/injection, schedule: Q01DX001 (ip), vehicle: saline 95 % of control | dose: 25.0 mg/kg/injection, schedule: Q01DX009 (ip), vehicle: saline 92 % of control | dose: 25.0 mg/kg/injection, schedule: Q04DX003 (ip), vehicle: saline 95 % of control | [1] 90 % of control | dose: 50.0 mg/kg/injection, schedule: Q01DX009 (ip), vehicle: saline 91 % of control | dose: 50.0 mg/kg/injection, schedule: Q04DX003 (ip), vehicle: saline 92 % of control

OC(CNc1ccnc2cc(Cl)ccc12)CNC1CCCCC1 (configuration not stated)
inactive: dose: 75.0 mg/kg/injection, schedule: Q01DX001 (ip), vehicle: other 97 % of control

O=C(Nc1ccc(C(=O)O)cc1)Nc1cccc(C(F)(F)F)c1
inactive: [2] 93 % of control | [3] 87 % of control

Cc1cccc(C(=O)N(C)C(c2ccco2)P(=O)(c2ccccc2)c2ccccc2)c1 (configuration not stated)
inactive: dose: 50.0 mg/kg/injection, schedule: Q01DX001 (ip), vehicle: carboxymethylcellulose (CMC) 103 % of control | dose: 50.0 mg/kg/injection, schedule: Q01DX009 (ip), vehicle: carboxymethylcellulose (CMC) 94 % of control and 92 % of control | dose: 100.0 mg/kg/injection, schedule: Q01DX001 (ip), vehicle: carboxymethylcellulose (CMC) 104 % of control | dose: 100.0 mg/kg/injection, schedule: Q01DX009 (ip), vehicle: carboxymethylcellulose (CMC) 94 % of control and 95 % of control | dose: 200.0 mg/kg/injection, schedule: Q01DX001 (ip), vehicle: carboxymethylcellulose (CMC) 95 % of control | dose: 200.0 mg/kg/injection, schedule: Q01DX009 (ip), vehicle: carboxymethylcellulose (CMC) 89 % of control

Nc1c[nH]c(=O)[nH]c1=O
inactive: [4] 89 % of control | [5] 95 % of control | [6] 97 % of control

CC1(C)N=C(N)N=C(N)N1c1ccc(CCNS(=O)(=O)c2cccc(S(=O)(=O)F)c2)cc1
inactive: [4] 96 % of control | [5] 94 % of control | [6] 96 % of control

O=C1CC(c2ccccc2Cl)N(S(=O)(=O)c2ccccc2)N1 (configuration not stated)
inactive: dose: 100.0 mg/kg/injection, schedule: Q01DX009 (ip), vehicle: saline 112 % of control | [7] 104 % of control | [8] 107 % of control | [9] 102 % of control | [10] 106 % of control | [11] 102 % of control

O=c1nc2c(ncn2C2OC(CO)C(O)C2O)c(NCCc2ccccc2)[nH]1 (configuration not stated)
inactive: dose: 50.0 mg/kg/injection, schedule: Q01DX005 (ip), vehicle: water 100 % of control | dose: 100.0 mg/kg/injection, schedule: Q01DX005 (ip), vehicle: water 94 % of control | dose: 200.0 mg/kg/injection, schedule: Q01DX005 (ip), vehicle: water 105 % of control | dose: 400.0 mg/kg/injection, schedule: Q01DX005 (ip), vehicle: water 113 % of control

CCOC(=O)N1CCN(P(=O)(c2ccccc2)N2CCN(C(=O)OCC)CC2)CC1
inactive: dose: 100.0 mg/kg/injection, schedule: Q01DX009 (ip), vehicle: Klucel (hydroxypropylcellulose) (HPC) 93 % of control | dose: 200.0 mg/kg/injection, schedule: Q01DX009 (ip), vehicle: Klucel (hydroxypropylcellulose) (HPC) 93 % of control | dose: 400.0 mg/kg/injection, schedule: Q01DX009 (ip), vehicle: Klucel (hydroxypropylcellulose) (HPC) 96 % of control

COc1ccc(CN(CCc2ccc(O)cc2)C(=O)C(F)(F)F)cc1O
inactive: dose: 100.0 mg/kg/injection, schedule: Q01DX001 (ip), vehicle: Klucel (hydroxypropylcellulose) (HPC) 91 % of control | dose: 200.0 mg/kg/injection, schedule: Q01DX001 (ip), vehicle: Klucel (hydroxypropylcellulose) (HPC) 89 % of control | dose: 400.0 mg/kg/injection, schedule: Q01DX001 (ip), vehicle: Klucel (hydroxypropylcellulose) (HPC) 87 % of control

OCC(O)COc1ccc(Cl)cc1 (configuration not stated)
inactive: [12] 98 % of control | [2] 100 % of control and 110 % of control | [13] 98 % of control and 100 % of control | [14] 105 % of control | [3] 96 % of control and 100 % of control | [15] 96 % of control and 103 % of control | [16] 88 % of control | dose: 400.0 mg/kg/injection, schedule: Q01DX009 (ip), vehicle: saline with Tween-80 94 % of control | [17] 100 % of control

CCOC(=O)CCN(C)CCC(=O)OCC
inactive: dose: 12.5 mg/kg/injection, schedule: Q01DX009 (ip), vehicle: water 101 % of control | dose: 25.0 mg/kg/injection, schedule: Q01DX009 (ip), vehicle: water 103 % of control | dose: 25.0 mg/kg/injection, schedule: Q04DX003 (ip), vehicle: water 101 % of control | dose: 50.0 mg/kg/injection, schedule: Q01DX009 (ip), vehicle: water 105 % of control | dose: 50.0 mg/kg/injection, schedule: Q04DX003 (ip), vehicle: water 101 % of control | dose: 100.0 mg/kg/injection, schedule: Q04DX003 (ip), vehicle: water 101 % of control

OCc1cscc1-c1cscc1CO
inactive: [12] 97 % of control | [14] 111 % of control | [16] 93 % of control

CC(C)c1c[nH]c(=O)[nH]c1=O
inactive: dose: 100.0 mg/kg/injection, schedule: Q01DX009 (ip), vehicle: other 102 % of control | [7] 91 % of control | dose: 200.0 mg/kg/injection, schedule: Q01DX009 (ip), vehicle: other 96 % of control | [9] 93 % of control | dose: 400.0 mg/kg/injection, schedule: Q01DX009 (ip), vehicle: other 102 % of control | [11] 91 % of control

c1c[nH]c(N=Nc2ccc(N=Nc3ncc[nH]3)cc2)n1
inactive: dose: 50.0 mg/kg/injection, schedule: Q01DX009 (ip), vehicle: saline with Tween-80 100 % of control | [2] 94 % of control | [3] 94 % of control

Nc1ccccc1SCc1ccccc1
inactive: [13] 101 % of control | [15] 96 % of control | [17] 98 % of control

COc1ccc(C(=O)C(Br)(Cc2ccccc2)OC)cc1 (configuration not stated)
inactive: dose: 66.0 mg/kg/injection, schedule: Q04DX003 (ip), vehicle: saline 93 % of control | [7] 94 % of control | dose: 150.0 mg/kg/injection, schedule: Q04DX003 (ip), vehicle: saline 94 % of control

CC(=O)OCC1OC(n2cnc3c(N)ncnc32)C(OC(C)=O)C1OC(C)=O (configuration not stated)
inactive: [1] 100 % of control | [4] 110 % of control | dose: 100.0 mg/kg/injection, schedule: Q01DX005 (ip), vehicle: saline 93 % of control | [5] 94 % of control and 106 % of control | dose: 200.0 mg/kg/injection, schedule: Q01DX005 (ip), vehicle: saline 95 % of control | [8] 104 % of control | [6] 94 % of control | [10] 109 % of control

CC(C)(C)c1cccc(C(C)(C)C)n1
inactive: [13] 97 % of control | [15] 105 % of control | [17] 115 % of control

CS(=O)(=O)O.[Cu+2]
inactive: dose: 5.0 mg/kg/injection, schedule: Q01DX001 (ip), vehicle: saline 93 % of control | dose: 10.0 mg/kg/injection, schedule: Q01DX001 (ip), vehicle: saline 96 % of control
